We go through 79 compounds from the METLIN SMRT retention time set (Domingo-Almenara et al. 2019).

The nature of this data set: gradient 5% acetonitrile 3 min, to 50% in 2 min, to 85% in 15 min, held 3 min, 100 µL/min. The settings on record: column: Zorbax Extend-C18 2.1 x 50 mm; eluents: water / acetonitrile, 0.1% formic acid. The method, boiled down: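 In both positive and negative ionization mode, a quadrupole time-of-flight mass spectrometer coupled to HPLC analyzed pure standards run in mixtures of ~100 molecules. The Zorbax Extend-C18 column (2.1 × 50 mm, 1.8 μm) was operated at 100 μL/min with water and acetonitrile, each containing 0.1% formic acid. The dead volume was 40 μL and the dwell volume 900 μL. Retention time came from adduct peaks that were computationally picked and individually inspected by hand.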
The compound `COc1ccc(C2=NC3(CCN(C(=O)Nc4ccc(Cl)cc4)CC3)NC2=O)cc1` had an RP-LC retention time of 835 s. In the case of `Cc1ccc(NC(=O)c2cc(C(C)C)n(C3CCS(=O)(=O)C3)n2)cc1` (centres undefined), the RP-LC retention time came to 901 s. The value for `O=C(NCC1CC1)c1nnn(Cc2ccc(Cl)cc2)c1-n1cccc1` was 1010 s; that for `O=C(N[C@@H]1CN(Cc2ccc3c(c2)CCO3)C[C@H]1CO)C1CC1` was 632 s; that for `O=S(=O)(c1ccc(-c2nnc(C3CCCC3)o2)o1)N1CCCCC1` was 1010 s. Regarding `O=C(NC1CCCCC1)[C@@H]1C[C@@H](O)CN1C1CCN(C(=O)c2ccc(Cn3ccnc3)o2)CC1`, the RP-LC retention time was determined as 551 s. The value for `O=C(NCc1ccc(F)cc1)c1c(O)c2cccnc2n(-c2cccc(F)c2)c1=O` was 1140 s; that for `Cc1cccc(CN2N=C(C(=O)N3CCOCC3)S(=O)(=O)c3ccccc32)c1` was 832 s.

Turning to `Cc1cccc(N2C(=O)CN(Cc3ccccc3)[C@H]3CS(=O)(=O)C[C@H]32)c1`, the RP-LC retention time is 859 s. In the case of `Cn1nc(C(=O)N2CCCCC2)c2c1CCN(C(=O)CCC(=O)NCCC1=CCCCC1)C2` it was 744 s; in that of `CCC1CN1P1(=O)OCC(C)([N+](=O)[O-])CO1` (centres undefined), 721 s; in that of `O=S(=O)(c1cc(F)cc(F)c1)N1CCC(c2noc(-c3cccc(F)c3)n2)CC1`, 1170 s. As for `COc1ccc(NC(=O)N(C)CCc2noc(COc3ccccc3)n2)cc1OC`, the RP-LC retention time is 788 s. The value for `CCOc1ccc2nc(NC(=O)Cc3csc4nc(-c5ccc(C)c(C)c5)cn34)sc2c1` was 980 s; that for `Cc1ccc2nc(-c3ccccc3)c(Nc3ccc4c(c3)OCCO4)n2c1` was 697 s. The value for `O=C(CSCC(=O)Nc1nc2ccccc2s1)Nc1nc(-c2cccs2)cs1` was 854 s; that for `COc1ccc(CN2CC3(CCN(S(=O)(=O)c4cc(C)ccc4C)CC3)C2=O)cc1` was 932 s; that for `O=C(CN1CCN(Cc2cccc(Cl)c2)C1=O)NC1CC1` was 683 s. The value for `COC(=O)c1ccc(Cl)cc1NC(=O)N1CCN(Cc2nc3cc(Cl)ccc3o2)CC1` was 1150 s; that for `O=C1NC(C(=O)N2CCOCC2)Cn2cccc21` (centres undefined) was 568 s; that for `CCCc1noc(-c2ccc3nnc(CC(=O)Nc4ccc(F)c(C)c4)n3c2)n1` was 921 s. As to `O=C(NC1CC1)c1cc(=O)[nH]c2c(Cl)cccc12`, the RP-LC retention time was determined as 626 s.

In the case of `O=C(Nc1ccc(N2CCCCS2(=O)=O)cc1)OCc1ccccc1`, the RP-LC retention time came out at 769 s. `CCCN1CCN(CCNc2nnc(-c3nc(C4CC4)no3)c3ccccc23)CC1` returned an RP-LC retention time of 597 s. The compound `CCCN(CC1CCOC1)C(=O)Nc1ccc(OCC)cc1` (centres undefined) came in with an RP-LC retention time of 750 s. On to `O=C(Nc1nnc(C2CC(=O)N(c3ccc(F)cc3)C2)o1)c1ccc(C(F)(F)F)cc1` (centres undefined), for which the RP-LC retention time came out at 830 s. In the case of `COC[C@@H]1CN(S(=O)(=O)c2ccc(C)cc2)C[C@H]1c1ccncc1` it was 651 s; in that of `Cc1cc(NC(=O)C(=O)NCC2(c3ccc(F)cc3)CCOCC2)no1`, 736 s. The value for `COc1ccc(NC(=O)C(C)C2CCN(C(=O)Nc3ccc(F)cc3)CC2)c(OC)c1` (centres undefined) was 871 s; that for `CCCCCn1c(=O)c2ccccc2n(Cc2nc(-c3ccc(OCC)c(OC)c3)no2)c1=O` was 1230 s. The value for `COc1ccc(-c2nc3ncccn3c2NCc2ccc(C)cc2)cc1` was 756 s; that for `Cc1csc(-c2cc(S(=O)(=O)Nc3cc(F)ccc3F)cn2CC(=O)N2CCCC2)n1` was 874 s.

Consider `O=S(=O)(CCc1noc(-c2ccc3c(c2)OCO3)n1)c1ccc(Cl)cc1`, for which the RP-LC retention time was found to be 979 s. The value for `CCc1noc(NC(C)=O)c1-c1ccc(C)c(S(=O)(=O)NC(C)C)c1` was 738 s; that for `O=C(NC1CCN(c2ccccc2)C1=O)c1cccc(Br)c1` (centres undefined) was 855 s; that for `Cc1nc2cc(N3CCCC(C(=O)NCc4ccccc4)C3)cnc2nc1C` (centres undefined) was 705 s. In the case of `CN1CCN(C(CNC(=O)Cc2cccc3ccccc23)c2ccsc2)CC1` (centres undefined) it was 564 s. In the case of `CCn1ccc(NC(=O)Nc2cc(C)cc(C)c2)n1` it was 853 s; in that of `Cc1noc(-c2cccn2Cc2ccccc2Cl)n1`, 1110 s. As for `Cc1ccc2cc(CN3CCC4(CC3)CC(C)(O)CCO4)c(=O)[nH]c2c1` (centres undefined), the RP-LC retention time stood at 603 s. In the case of `Cc1ccccc1CN1CCc2nc(N3CCN(c4ccccc4F)CC3)ncc2C1` it was 796 s. In the case of `CCOc1cccc(-c2noc(Cn3ncn4nc(-c5ccccc5Cl)cc4c3=O)n2)c1` it was 1250 s; in that of `CC1CCN(C(=O)c2ccc(CN3C(=O)C4CCCN4C(=O)c4ccccc43)cc2)CC1` (centres undefined), 790 s.

`COc1ccc(C(=O)NC2CCN(c3cc(-c4ccccc4)[nH]n3)C2)cc1OC` (centres undefined): the RP-LC retention time was found to be 663 s. The value for `O=C(Nc1ccccc1F)C(=O)c1ccc[nH]1` was 858 s; that for `CC1(C)N=C(N)N=C(N)N1c1ccc(OCCCOc2ccccc2)c(Cl)c1` was 812 s.

Turning to `CC(C)CC(=O)N1CCC2(CC1)NCc1ccccc1-n1ccnc12`, the RP-LC retention time is 594 s. In the case of `COc1ccc(OC)c(NC(=O)Cn2cnc3c(sc4nc(-c5ccccc5)ccc43)c2=O)c1` it was 1040 s; in that of `O=C1NCCOCCN(S(=O)(=O)c2cccc3cccnc23)[C@@H]2CCCC[C@H]12`, 735 s; in that of `CCN1C(=O)CCc2cc(NS(=O)(=O)c3ccc(C4CCCCC4)cc3)ccc21`, 1060 s. The value for `CC(=O)c1ccc(NC(=O)Cn2c(-c3cnccn3)nc(C)c(C)c2=O)cc1` was 680 s; that for `Cc1ccccc1-c1nc2cnccn2c1NCCC(=O)NC1CCCCC1` was 678 s; that for `Cc1nc2cccnc2n1C1CCN(C(=O)Nc2ccc(F)cc2)CC1` was 640 s. Regarding `Nc1nc(N2CCCC2)ncc1C(=O)NCc1ccccc1F`, the RP-LC retention time came out at 643 s. The value for `Clc1ccc(-c2nc(N3CCN(c4ccccn4)CC3)c3ccccc3n2)cc1` was 618 s. In the case of `CCN(CC)c1ncnc2c(-c3ccccc3)cn(CC(=O)NCCc3ccc(OC)c(OC)c3)c12` it was 726 s. In the case of `Cc1ncc(-c2ccnc(Nc3ccc(S(C)(=O)=O)cc3)n2)n1C(C)C` it was 636 s.

As for `O=C(C1CC1)N1CCCn2nc(-c3cccc(F)c3)cc2C1`, the RP-LC retention time came out at 784 s. The value for `O=C(Cn1cnc2nc(N3CCC(C(=O)NC4CC4)CC3)sc2c1=O)NC1CCCCC1` was 649 s.

In turn, `O=C(C1CC(=O)N(c2ccc3c(c2)CCN3C(=O)C2CC2)C1)N1CCC2(CC1)OCCO2` (centres undefined) had an RP-LC retention time of 652 s.

`CCCNC(=O)C1CCCN(c2nc3ncn(CC(=O)Nc4ccc(F)c(F)c4)c(=O)c3s2)C1` (centres undefined) displayed an RP-LC retention time of 708 s. The value for `CCCCOC(=O)c1ccc(NC(=O)c2snnc2CC)cc1` was 1010 s. In turn, `CCCS(=O)(=O)N1CCC(N2C[C@H](Oc3ccccc3)[C@@H]2c2ccncc2)CC1` showed an RP-LC retention time of 685 s. In the case of `CC1=C(c2ccccc2)S(=O)(=O)N=C1N1CCCN(C(=O)c2cccc(C#N)c2)CC1` it was 777 s.

In turn, `Cc1ccc(C)c(C(=O)N2C[C@@H](F)C[C@H]2C(=O)N2CCCCC2)c1` came in with an RP-LC retention time of 710 s. The value for `N#Cc1ccc(Cl)cc1NC(=O)C(=O)NCC1CCCO1` (centres undefined) was 759 s; that for `Cc1ccc(-c2csc(NC(=O)c3ccc4c(c3)OCO4)n2)cc1` was 1060 s. Regarding `CC(C)(C)c1ccc(-c2noc(CN3C(=O)COc4cc(Cl)ccc43)n2)cc1`, the RP-LC retention time was determined as 1360 s.

In the case of `Cc1ccc(N2C(=O)CSC2c2ccccc2)cc1` (centres undefined), the RP-LC retention time worked out at 843 s. In the case of `COc1cccc(C(=O)N2CCC3(CC2)N=C(c2ccccc2)NO3)c1` it was 728 s.

Take `CN(C)S(=O)(=O)c1ccc(C(=O)Nc2sc3c(c2C#N)CC(C)(C)NC3(C)C)cc1`: the RP-LC retention time was determined as 574 s.

`O=C(NCc1ccnc(N2CCSCC2)c1)Nc1ccccc1Cl` showed an RP-LC retention time of 643 s. In the case of `COCC(=O)Nc1cnc(-c2ccccc2)nc1` it was 729 s; in that of `CCOc1ccc(NC(=O)c2cc(C)n3nc(-c4ccco4)cc3n2)cc1`, 1130 s. Compound `COc1nc2ccccc2nc1N1CCCC(C(=O)NC2CCCC(C)C2C)C1` (centres undefined) gave an RP-LC retention time of 1160 s. In the case of `Cc1ccc(Nc2nc(C(=O)NCc3ccc(C)o3)nc3ccccc23)cc1`, the RP-LC retention time was found to be 847 s.

`Cc1cc(C)c(NC(=O)Cn2cccc2-c2nc(-c3ccc4c(c3)OCO4)no2)c(C)c1` showed an RP-LC retention time of 1120 s. In the case of `CC(=O)c1ccc(NC(=O)CN2C(=O)CC(c3ccccc3)=Nc3cccnc32)cc1` it was 780 s. In the case of `CN(c1ccc(F)cc1)S(=O)(=O)N1CCCC(C(=O)N2CCN(c3ccccn3)CC2)C1` (centres undefined) it was 660 s.
